Measurements taken from publication PMC9127571 (eBioMedicine, 2022).
In brackets after ≈: the same amount, converted by molar mass. Entries after “also recorded” stand apart in the source; their conditions may differ.

Legend:
[1] = Beagle dog oral toxicology, safety pharmacology and toxicokinetics; assay type: in vivo; conditions: high doses
[2] = Phase 1a safety and tolerability: adverse events, ECG, laboratory tests; assay type: in vivo, human
P. falciparum = conditions: cited from earlier work
[3] = Phase 1a plasma pharmacokinetics of SJ733 and metabolite SJ506; assay type: in vivo, human
[4] = Cobicistat plasma pharmacokinetics; assay type: in vivo, human; conditions: 150 mg, all individuals
[5] = MAD and cobicistat-boosted SAD cohorts

| Compound | methemoglobinemia [1] | relatedness of all AEs to SJ733 or cobicistat [2, 5] | serious adverse events [2, 5] | post-dose QTc above 500 ms ([2]; human, in vivo, oral) | baseline versus post-dose QTc interval change above 60 ms ([2]; instance: Day 3, 1·5 h post 300 mg, unboosted) | estimated minimum inhibitory concentration (MIC) (P. falciparum) [µg/mL] | minimum inhibitory concentration (MIC) (P. falciparum) [µg/mL] | individuals with time above MIC >96 h ([3]; 300 mg daily for 3 days) [%] | individuals with time above MIC >96 h ([3]; 600 mg daily for 3 days) [%] | decrease in median post-hoc apparent clearance ([3]; SAD cohorts without vs with cobicistat) [%] | AUC(0-inf) ([3]; human, plasma, oral) [µg·h/mL] | Cmax ([3]; human, plasma, oral, maximal Cmax, unboosted SAD and MAD cohorts) [ng/mL] | time by which levels were below LLOQ (10 ng/mL) [4] [h] |
| --- | --- | --- | --- | --- | --- | --- | --- | --- | --- | --- | --- | --- | --- |
| N#Cc1cc(NC(=O)[C@H]2c3ccccc3C(=O)N(CC(F)(F)F)[C@@H]2c2cccnc2)ccc1F [SJ733] | Dose-dependent, reversible methemoglobinemia | unlikely related or unrelated | no serious adverse events; also recorded: no serious AEs | no post-dose QTc interval change above 500 ms | one instance | 0.15 | 0.15 (≈ 0.32 µM) | 0 | 50 | 72 | 104 | 2180 |  |
| CC(C)c1nc(CN(C)C(=O)N[C@@H](CCN2CCOCC2)C(=O)N[C@H](CC[C@H](Cc2ccccc2)NC(=O)OCc2cncs2)Cc2ccccc2)cs1 [cobicistat] |  |  |  |  |  |  |  |  |  |  |  |  | ≤ 48 |
